Data on two molecules can be found in PMC11106165, “Repurposing the KCa3.1 Blocker Senicapoc for Ischemic Stroke” (Translational Stroke Research, 2023).

The subject of one series is rats or mice, tMCAO. More on the design: method as in PMID 21750563, PMID 26661208. To be noted: cited from earlier work.
Details of series [1]: method as in PMID 22675649. To be noted: cited from earlier work.
The target in the next series is T1, human tPA (Homo sapiens, UniProt P00750).
T1 construct: purchased Abcam ab108905
T1 sequence (P00750 36-562): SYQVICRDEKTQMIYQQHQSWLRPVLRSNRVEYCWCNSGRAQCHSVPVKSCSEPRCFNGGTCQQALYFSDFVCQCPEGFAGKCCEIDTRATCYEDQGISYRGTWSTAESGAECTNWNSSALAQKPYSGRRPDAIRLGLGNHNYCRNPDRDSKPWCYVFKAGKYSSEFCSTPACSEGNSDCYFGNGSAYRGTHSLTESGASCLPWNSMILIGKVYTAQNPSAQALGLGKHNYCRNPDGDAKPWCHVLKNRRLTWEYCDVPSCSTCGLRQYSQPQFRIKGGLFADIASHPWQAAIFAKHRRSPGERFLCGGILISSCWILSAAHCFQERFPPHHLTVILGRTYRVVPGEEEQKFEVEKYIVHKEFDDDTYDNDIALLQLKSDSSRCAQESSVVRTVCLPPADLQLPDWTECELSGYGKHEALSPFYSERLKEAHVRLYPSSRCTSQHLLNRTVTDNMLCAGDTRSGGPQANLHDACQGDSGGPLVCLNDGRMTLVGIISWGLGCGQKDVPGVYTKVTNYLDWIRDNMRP
Put plainly: Chromogenic tPA activity assay. The settings on record: 30-min assay. In kind it is biochemical. The text has this:
The commercially available tPA Activity Assay Kit (Abcam, ab108905) was used to assess whether senicapoc and TRAM-34 affect the ability of human tPA to cleave its substrate plasminogen similar to protocols published by Lapchak and Boitano [38] and Lapchak et al.. Reactions were run in optically clear flat-bottom 96-well plates (Corning, Catalog #3904). Human plasminogen activator inhibitor-1 (PAI-1; Sigma-Aldrich CC4075) was used as a positive control. Human plasminogen, the chromogenic plasmin substrate, and human tPA were included in the tPA Activity Assay Kit. […] The reactions were pre-incubated at 37 °C for 5 min prior to the addition of the chromogenic plasmin substrate and subsequently placed in a heated SpectraMax M5 spectrophotometer. Absorbances at 405 nm were measured every 30 s for 30 min.

For `Clc1ccccc1C(c1ccccc1)(c1ccccc1)n1cccn1` [TRAM-34], the “reduction in infarct area” value in the series on rats or mice, tMCAO (MCAO, 11 animals per group) is given as ~ 50%. Further, the infarct area result with rats or mice, tMCAO (rats or mice, 8 days after tMCAO with reperfusion) was “significantly smaller infarct areas”. In series [1], the metabolic stability entry was “metabolic instability” and the oral availability entry is “not orally available”. Also, in series [1] (rats and primates), the half-life is reported as ~ 2 h. Moreover, on human tPA (0.5 μM and 5 μM, PBS with 10% human serum), the “effect on tPA activity (absorbance at 405 nm)” value is listed as “do not interfere with tPA activity”.
Regarding “plasminogen activator inhibitor-1 [PAI-1]”, the “effect on tPA activity (absorbance at 405 nm)” value at human tPA (positive control) is given as “strongly inhibited”.
